Laboratory results as given in publication PMC7496931, “Activation of Sirtuin 2 Inhibitors Employing Photoswitchable Geometry and Aqueous Solubility” (Chemmedchem, 2020).

Assays:
[1] = UV/Vis spectra and half-life of thermal Z→E isomerization; assay type: physicochemical; set-up: k of thermal Z→E isomerization (non-linear regression): unit not given here; settings: for λΔ/max absorption maximum at thermal equilibrium: 50 μM in DMSO/assay buffer; for k of thermal Z→E isomerization (non-linear regression): 50 μM
Protocol: (§1) Photochemistry: All photoisomerization experiments were conducted under ruby light of 630 nm and total exclusion of daylight. Illumination was executed using a Bio‐Link 254 Crosslinker from Vilber‐Lourmat equipped with six Vilber‐Lourmat T8‐L lamps (8 W, 365 nm). Visible light radiation of 630 nm (ruby) and 452 nm (blue) was derived from a Paulmann FlexLED 3D strip. All compounds were irradiated in solution using spectrophotometric grade solvents. Photoisomerization and UV/Vis‐spectra measurement was conducted in quartz glass cuvettes (114‐QS, Hellma Analytics) at room temperature.
UV/Vis Spectra and Half-Life of Thermal Isomerization
The half-life of the thermal Z→E isomerization after 5 minutes of 365 nm irradiation was determined by UV/Vis-spectroscopy. Therefore, solutions of the respective compounds (50 µM) in 5%, 50% or 90% DMSO in enzyme assay buffer (v/v) were prepared. An initial spectrum of the thermal equilibrium was recorded. After 5 minutes of irradiation with 365 nm the increase of absorbance at the thermal equilibrium maximum (λ∆max) was recorded as exemplified by compound 15c (Figure S3). Absorbance at λ = λ ∆max was plotted as a function of time. Non-linear regression yielded the half-life of the thermal Z→E isomerization (Table S1). For extrapolation of the reaction kinetics, the plateau value was set to the initial absorbance at λ=λ∆max. The following equation was used for non-linear regression:
y = (y0 − Plateau)e−kx + Plateau
Figure S3: Left: UV-Vis spectrum of 15c (50 µM) in assay buffer (5% DMSO, v/v) at the thermal equilibrium (∆) and the photostationary state (PSS) after UV irradiation (365 nm). Right:
Absorbance of 15c (50 µm) in assay buffer (5% DMSO, v/v) at λ∆max = 328 nm after 5 minutes of UV (365 nm) irradiation.
(1 picture or pasted object on this page, not shown here)

[2] = Photoisomer distribution (PSD) by HPLC-ELSD; assay type: physicochemical; settings: for E/Z [%] PSD @ 365 nm / PSD after 365 nm radiation, share of the Z isomer: after 365 nm irradiation; for E/Z [%] PSD @ 365 nm / E/Z [%] PSD @ 452 nm: HPLC in MeOH/water, ELSD; for E/Z [%] PSD @ 452 nm: after 452 nm irradiation
Protocol: as §1

[3] = 50 % DMSO (v/v) in assay buffer
[4] = 90 % DMSO (v/v) in assay buffer

Row | Compound | λΔ/max absorption maximum at thermal equilibrium ([1]; 5 % DMSO (v/v)) [nm] | k of thermal Z→E isomerization (non-linear regression) ([1]; 5 % DMSO (v/v) in assay buffer) | E/Z [%] PSD @ 365 nm [2] | E/Z [%] PSD @ 452 nm [2] | λΔ/max absorption maximum at thermal equilibrium ([1]; 50 % DMSO (v/v)) [nm] | k of thermal Z→E isomerization (non-linear regression) [1, 3] | λΔ/max absorption maximum at thermal equilibrium ([1]; 90 % DMSO (v/v)) [nm] | k of thermal Z→E isomerization (non-linear regression) [1, 4] | PSD after 365 nm radiation, share of the Z isomer [2]
1 | CC(=O)Nc1c(C)cc(/N=N/c2cncc(C(N)=O)c2)cc1C [9 a] | 329 | 0.1176 |  |  |  |  |  |  | 
2 | CCCC(=O)Nc1c(C)cc(/N=N/c2cncc(C(N)=O)c2)cc1C [9 b] | 332 | 0.08608 | 10/90 | 86/14 |  |  |  |  | 
3 | CCCCCC(=O)Nc1c(C)cc(/N=N/c2cncc(C(N)=O)c2)cc1C [9 c] |  |  | 9/91 | 87/13 | 339 | 0.043 |  |  | 
4 | CCCCCCCC(=O)Nc1c(C)cc(/N=N/c2cncc(C(N)=O)c2)cc1C [9 d] |  |  | 9/91 | 88/12 |  |  | 345 | 0.03293 | 
5 | CCCCCCCCCC(=O)Nc1c(C)cc(/N=N/c2cncc(C(N)=O)c2)cc1C [9 e] |  |  | 10/90 | 90/10 |  |  | 344 | 0.03173 | 
6 | CCCCCCCCCCCC(=O)Nc1c(C)cc(/N=N/c2cncc(C(N)=O)c2)cc1C [9 f] |  |  | 10/90 | 91/9 |  |  | 346 | 0.03286 | 
7 | Cc1cc(/N=N/c2cncc(C(N)=O)c2)cc(C)c1NC(=O)c1ccc(F)cc1 [9 i] |  |  | 12/88 | 91/9 | 337 | 1.193 |  |  | 

More lines, now with the values ahead:

Row | λΔ/max absorption maximum at thermal equilibrium ([1]; 5 % DMSO (v/v)) [nm] | k of thermal Z→E isomerization (non-linear regression) ([1]; 5 % DMSO (v/v) in assay buffer) | E/Z [%] PSD @ 365 nm [2] | E/Z [%] PSD @ 452 nm [2] | λΔ/max absorption maximum at thermal equilibrium ([1]; 50 % DMSO (v/v)) [nm] | k of thermal Z→E isomerization (non-linear regression) [1, 3] | λΔ/max absorption maximum at thermal equilibrium ([1]; 90 % DMSO (v/v)) [nm] | k of thermal Z→E isomerization (non-linear regression) [1, 4] | PSD after 365 nm radiation, share of the Z isomer [2] | Compound
8 |  |  | 14/86 | 89/11 | 339 | 0.1022 |  |  |  | Cc1cc(/N=N/c2cncc(C(N)=O)c2)cc(C)c1NC(=O)C12CC3CC(CC(C3)C1)C2 [9 k]
9 |  |  | 31/69 | 94/6 | 325 | 0.003905 |  |  | 60–70% | CC(C)(C)OC(=O)c1ccc(/N=N/c2cncc(C(N)=O)c2)cc1 [15 a]
10 |  |  | 6/94 | 90/10 | 332 | 0.02959 |  |  |  | CC(C)(C)OC(=O)Cc1ccc(/N=N/c2cncc(C(N)=O)c2)cc1 [15 b]
11 | 332 | 0.003156 | 9/91 | 91/9 |  |  |  |  |  | NC(=O)c1cncc(/N=N/c2ccc(Br)cc2)c1 [15 d]
12 |  |  | 40/60 | 89/11 | 326 | 0.002728 |  |  | 60–70% | CCCCNC(=O)c1ccc(/N=N/c2cncc(C(N)=O)c2)cc1 [15 e]
13 |  |  | 25/75 | 89/11 | 355 | 0.0139 |  |  |  | NC(=O)c1cncc(/N=N/c2ccc(C#CCCCCO)cc2)c1 [15 g]
14 |  |  |  |  | 340 |  |  |  |  | C#Cc1ccc(/N=N/c2cccc(COc3cncc(C(N)=O)c3)c2)cc1 [20 c]
